The source of these data is ChEMBL document CHEMBL5260845, “Flavone-based arylamides as potential anticancers: Design, synthesis and in vitro cell-based/cell-free evaluations” (2020).

In assay [1] the test system is Malme-3M. The assay can be described thus: Antiproliferative activity against human Malme-3M cells assessed as cell growth inhibition at 10 uM by SRB assay. The assay is classed as functional, cell-based.
The subject of a further assay is MDA-MB-435. The assay can be described thus: Antiproliferative activity against human MDA-MB-435 cells assessed as cell growth inhibition at 10 uM by SRB assay. The assay is classed as functional, cell-based. On the technique in general: In SRB staining, fixed cells bind dye roughly in proportion to their protein.
The test system of another assay is SK-MEL-28. Nature of the assay: Antiproliferative activity against human SK-MEL-28 cells assessed as cell growth inhibition at 10 uM by SRB assay. It is filed as functional, cell-based.
A further assay deals with SK-MEL-5. Nature of the assay: Antiproliferative activity against human SK-MEL-5 cells assessed as cell growth inhibition at 10 uM by SRB assay. It is filed as functional, cell-based.
In another assay the test system is SK-MEL-2. The assay can be described thus: Antiproliferative activity against human SK-MEL-2 cells assessed as cell growth inhibition at 10 uM by SRB assay relative to control. It is filed as functional. To be noted: Homo sapiens, SK-MEL-2, dose 10 µM.
Another assay deals with UACC-257. The assay can be described thus: Antiproliferative activity against human UACC-257 cells assessed as cell growth inhibition at 10 uM by SRB assay relative to control. It is filed as functional.
The test system of the next assay is UACC-62. Nature of the assay: Antiproliferative activity against human UACC-62 cells assessed as cell growth inhibition at 10 uM by SRB assay relative to control. It is filed as functional.
The next assay has as its system M14. The assay can be described thus: Antiproliferative activity against human M14 cells assessed as cell growth inhibition at 10 uM by SRB assay relative to control. It is filed as functional.
Another assay deals with LOX IMVI. Nature of the assay: Antiproliferative activity against human LOX IMVI cells assessed as cell growth inhibition at 10 uM by SRB assay relative to control. It is filed as functional.
In the next assay the test system is OVCAR-4. Nature of the assay: Antiproliferative activity against human OVCAR-4 cells assessed as cell growth inhibition at 10 uM by SRB assay relative to control. The assay is classed as functional.
The next assay deals with SK-OV-3. Nature of the assay: Antiproliferative activity against human SK-OV-3 cells assessed as inhibition of cell growth at 10 uM by SRB assay relative to control. It is filed as functional.
The subject of assay [2] is Malme-3M. The assay can be described thus: Antiproliferative activity against human Malme-3M cells assessed as cell growth inhibition at 10 uM by SRB assay relative to control. The assay is classed as functional.
The subject of another assay is CCRF-CEM. The assay can be described thus: Antiproliferative activity against human CCRF-CEM cells assessed as cell growth inhibition at 10 uM by SRB assay. The assay is classed as functional, cell-based.
A further assay has as its system HL-60. Nature of the assay: Antiproliferative activity against human HL-60 cells assessed as cell growth inhibition at 10 uM by SRB assay. The assay is classed as functional, cell-based.
The test system of the next assay is K562. The assay can be described thus: Antiproliferative activity against human K562 cells assessed as cell growth inhibition at 10 uM by SRB assay. It is filed as functional, cell-based.
The next assay deals with MOLT-4. The assay can be described thus: Antiproliferative activity against human MOLT-4 cells assessed as cell growth inhibition at 10 uM by SRB assay. The assay is classed as functional, cell-based.
Another assay has as its system RPMI-8226. Nature of the assay: Antiproliferative activity against human RPMI-8226 cells assessed as cell growth inhibition at 10 uM by SRB assay. It is filed as functional, cell-based.
In a further assay the test system is SR. The assay can be described thus: Antiproliferative activity against human SR cells assessed as cell growth inhibition at 10 uM by SRB assay. It is filed as functional, cell-based.
For the next assay, the system named is EKVX. The assay can be described thus: Antiproliferative activity against human EKVX cells assessed as cell growth inhibition at 10 uM by SRB assay. The assay is classed as functional.
The test system of a further assay is HOP-92. Nature of the assay: Antiproliferative activity against human HOP-92 cells assessed as cell growth inhibition at 10 uM by SRB assay. It is filed as functional, cell-based.
In a further assay the test system is NCI-H226. Nature of the assay: Antiproliferative activity against human NCI-H226 cells assessed as cell growth inhibition at 10 uM by SRB assay. It is filed as functional.
The next assay relates to NCI-H23. Nature of the assay: Antiproliferative activity against human NCI-H23 cells assessed as cell growth inhibition at 10 uM by SRB assay. It is filed as functional.
Another assay deals with NCI-H522. Nature of the assay: Antiproliferative activity against human NCI-H522 cells assessed as cell growth inhibition at 10 uM by SRB assay. It is filed as functional, cell-based.
A further assay concerns SF-295. The assay can be described thus: Antiproliferative activity against human SF-295 cells assessed as cell growth inhibition at 10 uM by SRB assay. The assay is classed as functional, cell-based.
Another assay concerns OVCAR-8. Nature of the assay: Antiproliferative activity against human OVCAR-8 cells assessed as cell growth inhibition at 10 uM by SRB assay relative to control. It is filed as functional.
The test system of the next assay is IGROV-1. Nature of the assay: Antiproliferative activity against human IGROV-1 cells assessed as cell growth inhibition at 10 uM by SRB assay relative to control. The assay is classed as functional.
For a further assay, the system named is UO-31. The assay can be described thus: Antiproliferative activity against human UO-31 cells assessed as inhibition of cell growth at 10 uM by SRB assay relative to control. It is filed as functional.
In another assay the test system is BT-549. Nature of the assay: Antiproliferative activity against triple negative human BT-549 cells assessed as inhibition of cell growth at 10 uM by SRB assay relative to control. It is filed as functional.
In the next assay the test system is Hs-578T. The assay can be described thus: Antiproliferative activity against human Hs-578T cells assessed as inhibition of cell growth at 10 uM by SRB assay. It is filed as functional, cell-based.

Molecules are shown by their SMILES. Activity calls are given as the source filed them. The rule behind the calls is not given here.

Regarding `CN(C)/N=N/c1[nH]cnc1C(N)=O` [DACARBAZINE], the inhibition result with Malme-3M [1], in the assay on MDA-MB-435, in the assay on SK-MEL-28 and with SK-MEL-5 was “inactive” each time. The inhibition at 10 µM in the assay on SK-MEL-2 was 15%; in the assay on UACC-257, 15%; with UACC-62, 25.6%; in the assay with M14, 36.5%; with LOX IMVI it was 49.3%.
On to `CC(=O)O[C@H]1C(=O)[C@@]2(C)[C@H]([C@H](OC(=O)c3ccccc3)[C@]3(O)C[C@H](OC(=O)[C@H](O)[C@@H](NC(=O)c4ccccc4)c4ccccc4)C(C)=C1C3(C)C)[C@]1(OC(C)=O)CO[C@@H]1C[C@@H]2O` [PACLITAXEL], for which the results for the inhibition at 10 µM with OVCAR-4 and in the assay on SK-OV-3 were 113% and 57.1%, respectively.
In the case of `COc1cc2oc(-c3cccc(NC(=O)c4ccc([N+](=O)[O-])cc4)c3)cc(=O)c2c(OC)c1OC`, the inhibition at 10 µM is 70.2% in the assay with Malme-3M [2]; less than 50% with EKVX; less than 50% in the assay on NCI-H226; less than 50% in the assay with NCI-H23; not above 46% in the assay on SK-MEL-2; 52.1% with UACC-62. Further, the inhibition at 10 µM in the assay with OVCAR-4 was 57.3%; with OVCAR-8 it was 57.3%; in the assay on IGROV-1, 57.3%; in the assay on BT-549 it was 77%. In addition, the inhibition result with CCRF-CEM, in the assay with HL-60, with K562, with MOLT-4, with RPMI-8226 and with SR was “Active” in each case. Moreover, the inhibition result in the assay with HOP-92, in the assay with NCI-H522, with SF-295, in the assay on UO-31 and in the assay with Hs-578T was “Active” each time.

A word on the inhibition: it is the change of the read-out against control, counted positive when it falls.
